The numbers were not newly measured in EP1854876A2, “Genetically engineered glutaminase and its use in antiviral and anticancer therapy” (ME MEDICAL ENZYMES AG, priority 1992, dated 1994), which cites them from elsewhere.

As a reminder, the Km is the substrate concentration at which the rate is half of its maximum.

Data set [1] relates to E. coli asparaginase, ineffective form. The settings on record: substrate not given.
Data set [2] concerns the target Pseudomonas 7A glutaminase-asparaginase (Pseudomonas sp., UniProt P10182). The settings on record: described as low.
Data set [3] has as its system known mammalian glutaminase enzymes. The settings on record: described as high; substrate not given.
The target of data set [4] is E. coli glutaminase A (Escherichia coli, UniProt P77454). The settings on record: described as high; substrate not given.
E. coli glutaminase A, sequence (P77454 whole entry): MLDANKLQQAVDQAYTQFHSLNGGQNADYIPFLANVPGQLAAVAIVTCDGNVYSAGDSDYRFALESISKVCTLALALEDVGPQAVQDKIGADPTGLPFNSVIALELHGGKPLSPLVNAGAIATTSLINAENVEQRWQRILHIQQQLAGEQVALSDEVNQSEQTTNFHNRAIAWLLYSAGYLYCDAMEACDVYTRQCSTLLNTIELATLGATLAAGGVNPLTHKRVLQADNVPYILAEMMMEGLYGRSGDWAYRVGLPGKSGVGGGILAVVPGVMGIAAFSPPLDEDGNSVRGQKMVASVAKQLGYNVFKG
Data set [5] concerns the target E. coli glutaminase B (Escherichia coli, UniProt P0A6W0). The settings on record: described as high; substrate not given.

E. coli glutaminase B, sequence (P0A6W0 whole entry): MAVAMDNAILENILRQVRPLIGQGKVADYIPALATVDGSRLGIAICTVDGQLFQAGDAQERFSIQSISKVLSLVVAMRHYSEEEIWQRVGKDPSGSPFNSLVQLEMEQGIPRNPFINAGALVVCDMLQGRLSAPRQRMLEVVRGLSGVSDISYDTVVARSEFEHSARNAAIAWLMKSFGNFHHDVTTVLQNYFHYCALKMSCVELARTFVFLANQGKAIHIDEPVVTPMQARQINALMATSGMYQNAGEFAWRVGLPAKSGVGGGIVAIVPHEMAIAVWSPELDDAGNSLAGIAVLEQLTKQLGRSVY
Pseudomonas 7A glutaminase-asparaginase, sequence (P10182 whole entry): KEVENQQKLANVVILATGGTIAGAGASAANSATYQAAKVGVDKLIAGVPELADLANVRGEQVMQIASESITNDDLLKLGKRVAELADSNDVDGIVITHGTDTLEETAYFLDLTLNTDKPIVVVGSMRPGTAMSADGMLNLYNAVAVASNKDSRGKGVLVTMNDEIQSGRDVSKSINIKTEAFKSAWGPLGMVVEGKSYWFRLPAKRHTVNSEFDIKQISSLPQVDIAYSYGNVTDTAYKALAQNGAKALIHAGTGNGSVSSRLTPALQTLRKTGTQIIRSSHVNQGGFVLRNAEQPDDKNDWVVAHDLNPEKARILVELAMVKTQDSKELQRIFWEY

`NC(=O)C[C@H](N)C(=O)O` [asparagine]: in data set [1], the Km was greater than 1000 µM.
With `NC(=O)CC[C@H](N)C(=O)O` [glutamine], the KM for glutamine result in data set [2] is “micromolar range”. In addition, the KM result in data set [3], in data set [4] and in data set [5] was “millimolar range” throughout.
